Assay results taken from PubChem BioAssay (NCI).
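All cell lines were grown in 96-well plates and treated with compound for 48 hours. GI50 = concentration required for 50% inhibition of growth. TGI: concentration producing complete growth inhibition.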

How the values were obtained:
Test in all cases: DTP human tumour cell line panel, 48 h
[1] = system: TK-10 renal
[2] = system: HCC-2998 colon
[3] = system: HOP-62 NSCLC
[4] = system: IGROV1 ovarian
[5] = system: K-562 leukemia
[6] = system: UACC-257 melanoma
[7] = system: DMS 114 small cell lung
[8] = system: M19-MEL melanoma
[9] = system: NCI-H460 lung
[10] = system: SK-MEL-5 melanoma
[11] = system: SN12C renal
[12] = system: SF-539 CNS
[13] = system: KM12 colon
[14] = system: U251 CNS
[15] = system: CCRF-CEM leukemia
[16] = system: SK-MEL-28 melanoma
[17] = system: UACC-62 melanoma
[18] = system: SF-268 CNS
[19] = system: XF 498 CNS
[20] = system: DMS 273 small cell lung
[21] = system: SK-OV-3 ovarian
[22] = system: OVCAR-8 ovarian
[23] = system: HT29 colon
[24] = system: SR leukemia
[25] = system: KM20L2 colon
[26] = system: COLO 205 colon
[27] = system: HL-60(TB) leukemia
[28] = system: A549 NSCLC
[29] = system: M14 melanoma
[30] = system: NCI-H23 lung
[31] = system: NCI-H226 lung
[32] = system: HCT-116 colon
[33] = system: RPMI-8226 leukemia
[34] = system: LXFL 529 NSCLC
[35] = system: 786-0 renal
[36] = system: ACHN renal
[37] = system: OVCAR-3 ovarian
[38] = system: EKVX NSCLC
[39] = system: HCT-15 colon
[40] = system: MALME-3M melanoma
[41] = system: SW-620 colon
[42] = system: SNB-19 CNS
[43] = system: MOLT-4 leukemia
[44] = system: NCI-H522 lung
[45] = system: LOX IMVI melanoma
[46] = system: UO-31 renal
[47] = system: SF-295 CNS
[48] = system: A498 renal
[49] = system: SK-MEL-2 melanoma
[50] = system: RXF 393 renal
[51] = system: OVCAR-4 ovarian
[52] = system: SNB-75 CNS
[53] = system: HOP-92 NSCLC
[54] = system: CAKI-1 renal
[55] = system: SNB-78 CNS
[56] = system: PC-3 prostate
[57] = system: MDA-N
[58] = system: HS 578T breast
[59] = system: MDA-MB-231 breast
[60] = system: MCF7 breast
[61] = system: T-47D breast
[62] = system: DU-145 prostate
[63] = system: MDA-MB-435
[64] = system: OVCAR-5 ovarian
[65] = system: BT-549 breast
[66] = system: DLD-1 colon

SMILES: CC1(C)CC(C)(C)CC(O)(C2(O)CC(C)(C)CC(C)(C)C2)C1
- TGI [1]: > 100 µM
- TGI [2]: > 100 µM
- TGI [3]: > 100 µM
- TGI [4]: > 100 µM
- TGI [5]: > 100 µM
- TGI [6]: > 100 µM
- TGI [7]: > 100 µM
- TGI [8]: > 100 µM
- TGI [9]: > 100 µM
- TGI [10]: > 100 µM
- TGI [11]: > 100 µM
- TGI [12]: > 100 µM
- TGI [13]: > 100 µM
- TGI [14]: > 100 µM
- TGI [15]: > 100 µM
- TGI [16]: > 100 µM
- TGI [17]: > 100 µM
- TGI [18]: > 100 µM
- TGI [19]: > 100 µM
- TGI [20]: > 100 µM
- TGI [21]: > 100 µM
- TGI [22]: > 100 µM
- TGI [23]: > 100 µM
- TGI [24]: > 100 µM
- TGI [25]: > 100 µM
- TGI [26]: > 100 µM
- TGI [27]: > 100 µM
- TGI [28]: > 100 µM
- TGI [29]: > 100 µM
- TGI [30]: > 100 µM
- TGI [31]: > 100 µM
- TGI [32]: > 100 µM
- TGI [33]: > 100 µM
- TGI [34]: > 100 µM
- TGI [35]: > 100 µM
- TGI [36]: > 100 µM
- TGI [37]: > 100 µM
- TGI [38]: > 100 µM
- TGI [39]: > 100 µM
- TGI [40]: > 100 µM
- TGI [41]: > 100 µM
- TGI [42]: > 100 µM
- TGI [43]: > 100 µM
- TGI [44]: > 100 µM
- TGI [45]: > 100 µM
- TGI [46]: > 100 µM
- TGI [47]: > 100 µM

SMILES: C1C[OH+]CC[OH+]CC[OH+]CC[OH+]CC[OH+]CC[OH+]1.[Cl-].[V]
- GI50 [1]: 20.4 µM
- TGI [1]: 92.5 µM
- GI50 [2]: 71.9 µM
- TGI [2]: > 100 µM
- GI50 [3]: 19.2 µM
- TGI [3]: 33.9 µM
- GI50 [4]: 13 µM
- TGI [4]: > 100 µM
- GI50 [48]: > 100 µM
- TGI [48]: > 100 µM
- GI50 [5]: > 100 µM
- TGI [5]: > 100 µM
- GI50 [6]: 16.6 µM
- TGI [6]: 37.4 µM
- GI50 [9]: 36 µM
- TGI [9]: > 100 µM
- GI50 [10]: 4.76 µM
- TGI [10]: 25.3 µM
- GI50 [11]: > 100 µM
- TGI [11]: > 100 µM
- GI50 [12]: 5.43 µM
- TGI [12]: 17.9 µM
- GI50 [13]: 31.3 µM
- TGI [13]: > 100 µM
- GI50 [14]: 35.8 µM
- TGI [14]: > 100 µM
- GI50 [16]: 13.7 µM
- TGI [16]: 43.5 µM
- GI50 [17]: 10.7 µM
- TGI [17]: 51.4 µM
- GI50 [18]: 42.9 µM
- TGI [18]: > 100 µM
- GI50 [21]: 45.9 µM
- TGI [21]: 97 µM
- GI50 [22]: > 100 µM
- TGI [22]: > 100 µM
- GI50 [23]: 39.7 µM
- TGI [23]: > 100 µM
- GI50 [25]: 46.5 µM
- TGI [25]: > 100 µM
- GI50 [26]: > 100 µM
- TGI [26]: > 100 µM
- GI50 [27]: 37.1 µM
- TGI [27]: > 100 µM
- GI50 [28]: 39.1 µM
- TGI [28]: > 100 µM
- GI50 [49]: 29.2 µM
- TGI [49]: 98.2 µM
- GI50 [29]: 12.1 µM
- TGI [29]: 93.8 µM
- GI50 [30]: 21.9 µM
- TGI [30]: 47.7 µM
- GI50 [50]: 4.89 µM
- TGI [50]: 19 µM
- GI50 [31]: 40.1 µM
- TGI [31]: > 100 µM
- GI50 [32]: 35.9 µM
- TGI [32]: > 100 µM
- GI50 [51]: 2.52 µM
- TGI [51]: 9.27 µM
- GI50 [33]: 64.1 µM
- TGI [33]: > 100 µM
- GI50 [52]: 13.9 µM
- TGI [52]: 30 µM
- GI50 [53]: 31.5 µM
- TGI [53]: 99.2 µM
- GI50 [35]: 11.7 µM
- TGI [35]: 33.9 µM
- GI50 [36]: 31.1 µM
- TGI [36]: > 100 µM
- GI50 [54]: 36.9 µM
- TGI [54]: > 100 µM
- GI50 [37]: 20.7 µM
- TGI [37]: 41.8 µM
- GI50 [39]: 50.9 µM
- TGI [39]: > 100 µM
- GI50 [40]: 8.19 µM
- TGI [40]: 28.7 µM
- GI50 [41]: 49.6 µM
- TGI [41]: > 100 µM
- GI50 [42]: 47.1 µM
- TGI [42]: > 100 µM
- GI50 [43]: 82.5 µM
- TGI [43]: > 100 µM
- GI50 [44]: 26.3 µM
- TGI [44]: 99.5 µM
- GI50 [45]: 20.7 µM
- TGI [45]: 38.7 µM
- GI50 [46]: > 100 µM
- TGI [46]: > 100 µM
- GI50 [47]: 18.7 µM
- TGI [47]: 43.8 µM

SMILES: CN(C)CCCNc1ccnc2cccc([N+](=O)[O-])c12
- TGI [1]: 36 µM
- TGI [55]: 61.6 µM
- TGI [2]: 32.1 µM
- TGI [3]: > 56.9 µM
- TGI [56]: 30.3 µM
- TGI [4]: 28.3 µM
- TGI [48]: 30.7 µM
- TGI [5]: > 100 µM
- TGI [57]: 47 µM
- TGI [58]: 97.1 µM
- TGI [59]: 39.6 µM
- TGI [6]: 30.7 µM
- TGI [60]: 28.2 µM
- TGI [9]: 25.2 µM
- TGI [10]: 24.4 µM
- TGI [11]: 30.8 µM
- TGI [12]: 45.1 µM
- TGI [13]: 27 µM
- TGI [14]: > 70.7 µM
- TGI [15]: > 100 µM
- TGI [16]: 35.4 µM
- TGI [18]: 47.7 µM
- TGI [61]: 80.8 µM
- TGI [21]: 22.9 µM
- TGI [22]: > 100 µM
- TGI [23]: 27 µM
- TGI [24]: > 100 µM
- TGI [62]: > 100 µM
- TGI [25]: 25.9 µM
- TGI [26]: 15.6 µM
- TGI [27]: > 100 µM
- TGI [28]: 35.7 µM
- TGI [49]: 33.8 µM
- TGI [29]: 25.8 µM
- TGI [63]: 42.3 µM
- TGI [30]: 23.5 µM
- TGI [64]: 44.1 µM
- TGI [50]: 61.1 µM
- TGI [31]: 38.2 µM
- TGI [32]: 27.7 µM
- TGI [51]: 20.4 µM
- TGI [33]: > 100 µM
- TGI [52]: 73.4 µM
- TGI [53]: 28.8 µM
- TGI [35]: 37.1 µM
- TGI [36]: 24.3 µM
- TGI [54]: 52.8 µM
- TGI [37]: 20.6 µM
- TGI [38]: 19.9 µM
- TGI [39]: 39.9 µM
- TGI [40]: 21.4 µM
- TGI [41]: 40.1 µM
- TGI [42]: 56.6 µM
- TGI [43]: > 100 µM
- TGI [44]: 18.2 µM
- TGI [45]: 35.8 µM
- TGI [65]: 43.9 µM
- TGI [46]: 38.8 µM
- TGI [47]: 36.5 µM

SMILES: COc1ccc(C(=O)N2c3ccccc3N(C)n3cccc3C2CC(=O)O)cc1 (stereo unspecified)
- TGI [1]: > 100 µM
- TGI [55]: > 100 µM
- TGI [2]: > 100 µM
- TGI [3]: > 100 µM
- TGI [4]: > 100 µM
- TGI [48]: > 100 µM
- TGI [5]: > 100 µM
- TGI [66]: > 100 µM
- TGI [6]: > 100 µM
- TGI [7]: > 100 µM
- TGI [8]: > 100 µM
- TGI [9]: > 100 µM
- TGI [10]: > 100 µM
- TGI [11]: > 100 µM
- TGI [12]: > 100 µM
- TGI [13]: > 100 µM
- TGI [15]: > 100 µM
- TGI [16]: > 100 µM
- TGI [17]: > 100 µM
- TGI [18]: > 100 µM
- TGI [20]: > 100 µM
- TGI [21]: > 100 µM
- TGI [22]: > 100 µM
- TGI [23]: > 100 µM
- TGI [25]: > 100 µM
- TGI [26]: > 100 µM
- TGI [27]: > 100 µM
- TGI [28]: > 100 µM
- TGI [49]: > 100 µM
- TGI [29]: > 100 µM
- TGI [30]: > 100 µM
- TGI [64]: > 100 µM
- TGI [50]: > 100 µM
- TGI [31]: > 100 µM
- TGI [51]: > 100 µM
- TGI [33]: > 100 µM
- TGI [52]: > 100 µM
- TGI [53]: > 100 µM
- TGI [34]: > 100 µM
- TGI [35]: > 100 µM
- TGI [36]: > 100 µM
- TGI [54]: > 100 µM
- TGI [37]: > 100 µM
- TGI [38]: > 100 µM
- TGI [39]: > 100 µM
- TGI [40]: > 100 µM
- TGI [41]: > 100 µM
- TGI [42]: > 100 µM
- TGI [43]: > 100 µM
- TGI [44]: > 100 µM
- TGI [45]: > 100 µM
- TGI [46]: > 100 µM
- TGI [47]: > 100 µM
